Results: paper PMC10945332, “Precision peptide theranostics: developing N- to C-terminus optimized theranostics targeting cholecystokinin-2 receptor” (Theranostics, 2024)
Where two headings read alike, the source gives them in different places. Where a SMILES comes first, the peptide text is derived from it. [ ]: non-standard residue; d: D form. The star is where a group is joined. DOTA = O=C(O)CN1CCN(CC(=O)O)CCN(CC(=O)*)CCN(CC(=O)O)CC1; NMe1Nal = CN[C@@H](Cc1cccc2ccccc12)C(=O)O; NMeNle = CCCC[C@H](NC)C(=O)O; Sar = CNCC(=O)O

What was measured:
[1] = system: CCK2R; design: method as in PMID 33826325; conditions: peptide with gallium coordinated DOTA at the N-terminus; previously assessed; read-out: affinity for CCK2R; cited from earlier work
[2] = system: AR42J xenografts; conditions: cited from earlier work
[3] = target: T1, human CCK2R (Homo sapiens, UniProt P32239); assay: Competitive binding against [177Lu]Lu-DOTA-CP04 in A431-CCK2R cells
T1 construct: stably transfected to over-express the human full-length CCK2R (A431-CCK2R); expressed in transfected cells
T1 sequence (P32239 1-447): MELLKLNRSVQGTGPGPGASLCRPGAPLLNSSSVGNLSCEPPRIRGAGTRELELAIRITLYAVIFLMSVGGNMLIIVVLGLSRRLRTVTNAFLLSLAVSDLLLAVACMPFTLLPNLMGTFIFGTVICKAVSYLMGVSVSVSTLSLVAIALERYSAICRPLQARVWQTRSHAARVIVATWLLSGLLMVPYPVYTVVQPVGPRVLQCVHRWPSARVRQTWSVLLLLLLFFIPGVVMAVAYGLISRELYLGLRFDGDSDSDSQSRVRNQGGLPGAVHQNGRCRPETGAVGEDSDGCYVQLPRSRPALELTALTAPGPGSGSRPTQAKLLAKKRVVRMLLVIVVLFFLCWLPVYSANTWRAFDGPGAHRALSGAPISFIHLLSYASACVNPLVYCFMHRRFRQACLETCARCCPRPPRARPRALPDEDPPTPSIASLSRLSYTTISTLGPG
Procedure: Materials and Methods: Biology […]
In Vitro CCK2R-Ligand Competitive Binding Assays
All CCK2R binding experiments were conducted using A431 (human epidermoid carcinoma) […]
cells stably transfected to over-express the human full-length CCK2R (A431-CCK2R) (gifted […]
by Dr. Elisabeth von Guggenberg, Medizinische Universität Innsbruck).[41] As a negative […]
control, A431 cells stably transfected with an empty vector were analysed simultaneously […]
(A431-EV). All A431 cells were maintained in DMEM (Gibco, Australia) media supplemented […]
with 10% foetal calf serum and 250 µg/mL G418 as described previously.[32]
The affinity of all peptides for the CCK2R was evaluated using competitive binding assays […]
Briefly, 48 hours before the experiment […]
cells were plated at a density of 300,000 cells per well in 12 well plates. On the day of the […]
experiment, linear peptides were diluted in DMEM supplemented with 1% foetal calf serum to […]
DOTA-CP04 was added to each dilution. Cells were washed twice in ice-cold binding buffer […]
(DMEM supplemented with 1% foetal calf serum) and resuspended in 1 mL of the pre-prepared […]
peptide mix before being incubated at room temperature for 1 hour. Post-incubation the media […]
was removed and kept for analysis (unbound fraction) and the cells were washed twice in ice- […]
cold PBS which was pooled with the unbound fraction. Finally, 1 M NaOH (150µL) was added […]
to the wells and allowed to incubate for 5 min before lysates were collected (bound fraction).
A small volume of lysate was kept aside to determine protein concentration using the Pierce® BCA protein assay kit (Thermo Fisher, Australia). All samples were analysed using the Perkin […]
normalised according to protein concentration. Half maximal inhibitory concentration (IC50) was determined using nonlinear regression calculated using Gr aphPad Prism Software (GraphPad Software, California, USA). […]

[4] = system: A431-CCK2R tumors; conditions: A431-CCK2R/NSG mouse model; 1 hour post-injection; data shown for [177Lu]Lu-CP04; cited from earlier work
[5] = assay type: in vitro ADME, mouse
Procedure: Metabolic stability is an important determinant of the efficacy of peptide radiopharmaceuticals and their progression as promising theranostic candidates. In vitro, metabolic degradation through hepatic and renal enzymes can be assessed by utilizing liver and kidney tissue homogenates. Radiolabeled peptides [^68Ga]Ga-DOTA-GA4, and D-Ala substituted variants [^68Ga]Ga-DOTA-GA7, [^68Ga]Ga-DOTA-GA11-GA13 were incubated in liver and kidney mouse homogenates, in human serum at 37°C, and in HEPES buffer (pH 7.4) as a negative control. Following a time course experiment, the metabolites were analyzed using HPLC to quantify the % breakdown of the respective parent peptide. […]
To assess the stability of 68Ga radiolabeled peptides against enzymatic degradation, duplicate samples (750-900 pmol/mL, 2-5MBq) were incubated at 37 ℃ with pooled human serum, 15% […]
mouse kidney homogenate, 30% mouse liver homogenate or 20 mM HEPES, pH 7.3 (control).
Human blood was collected, and serum prepared using SSTII advance vacutainer tubes according to the manufacturer’s instructions (Becton Dickinson, New Jersey, USA). Mouse kidney and liver homogenates were prepared by washing the tissues in ice-cold HEPES buffer, pH 7.3 and placing them in pre-chilled tubes containing HEPES buffer and 2.38 mm metal beads (Mo-Bio Laboratories, Hilden, Germany). Tissues were homogenised using the PowerLyzer24 homogeniser (Qiagen, Hilden, Germany) according to the manufacturer’s instructions. 68Ga radiolabeled peptides were then incubated with the various lysates at 37 ℃ and samples were collected at 15, 30, 60 and 90 min. Reactions were terminated by addition of an equal volume of acetonitrile and centrifugation for 2 min at 15,000 rpm. Supernatants were diluted in water before being analysed by HPLC using a Kinetex C18 XB column (5µm

[6] = in vivo; conditions: female, NSG, mouse, iv, total radioactivity; for SUV at 2 h: SUVmax
Procedure: (§1) In order to assess these promising ligands as potential theranostics, the library of [^68Ga]Ga-DOTA-peptides was evaluated using static small animal PET imaging and quantifying biodistribution studies. This study was performed to investigate tumor uptake as well as the accumulation of radioligands in other organs. Mice bearing A431-CCK2R tumors were imaged at 1- and 2 hours post tracer injection, and tracer biodistribution was evaluated at the 1 hour and 2.5 hour time points to quantify tumor uptake and retention. […]
(§2) Small Animal PET Imaging and Biodistribution Studies
(§3) Female NSG mice (age 11-14 weeks) were sourced from Animal Resources Centre, (Canning Vale, Western Australia) and were inoculated subcutaneously on the right flank with 1-3 x 106 […]
(§4) A431-CCK2R cells in PBS:Matrigel (1:1). […]
(§5) Mice were assigned to imaging and/or biodistribution groups (tumour volumes: 119-327 mm3).
(§6) The respective 68Ga labelled tracer (1.63–3.81 MBq, 170µL, 13.7–14.2 pmoles) containing vehicle solution (75µL, DMSO:Tween 80: water, 2:2:6 v/v/v) was then administered to mice intravenously via tail vein injection. Three mice were euthanized for biodistribution 1 hour post injection (n=3) and selected tissues were excised, weighed, and counted using a Capintec (Captus 4000e) gamma counter. Three mice were anaesthetised using 1.5% isoflurane and imaged at 1 hour (n=3) and 2 hours (n=3) with a G8 Small Animal PET/CT scanner (Perkin […]
(§7) Elmer/Sofie Biosciences). A 10 min static PET scan was acquired, followed immediately by a CT scan (Supplementary Data, pS51–S55). PET images were acquired using the G8 acquisition engine software and reconstructed using a 3D maximal likelihood and expectation maximization (ML-EM) algorithm. PET images were analysed using VivoQuant software, version 3.0 (inviCRO Imaging Services and Software) to quantify maximum standardised uptake value in regions of interest (SUVmax). Background regions for imaging experiments were calculated by quantitating mean standardised uptake value (SUVmean) of the abdomen and gut region. The region of interest was selected due to low uptake in abdomen/gut during imaging. After imaging the 2-hour time point, mice organs were harvested for biodistribution […]
(§8) For blocking CCK2R binding a solution of N-[(3R)-2,3-Dihydro-1-[2-(2-methylphenyl)-2-oxoethyl]-2-oxo-5-phenyl-1H-1,4-benzodiazepin-3-yl]-N′-(3-methylphenyl)-urea (YM022; Sigma Aldrich) was used. YM022 (75µL of a 1 mg/ml solution constituting DMSO:Tween 80: water, 2:2:6 v/v/v) was added to the respective 68Ga labelled tracer (1.41–3.61 MBq, 100 µL, 13.7–14.2 pmoles) and this mixture ([…]) was administered in three mice intravenously via tail vein injection and organs harvested at 1 hour post injection for biodistribution analysis, as above.
(§9) All animal experiments were performed with the approval of the Peter MacCallum Cancer Centre Animal Experimentation Ethics Committee and in accordance with the Australian code for the care and use of animals for scientific purposes, 8th Edition, 2013 (AEEC Approval

[7] = mouse, in vivo
Procedure: as §1, §2, §3, §4, §5, §6, §7, §8, §9

[8] = assay type: physicochemical
Procedure: Lipophilicity, expressed as the octanol-water partition coefficient, constitutes an important property in drug action, influencing both pharmacokinetic and pharmacodynamics processes. The distribution coefficient (LogD7.4) of [^68Ga]Ga-DOTA-peptides was determined by measuring radioactivity distribution in the aqueous phase (phosphate buffer pH7.4) and the organic phase (n-octanol). […]
To determine the distribution coefficient (logD 7.4), 68Ga radiolabeled peptides [68Ga]Ga-DOTA-GA4, [68Ga]Ga-DOTA-GA7, and [68Ga]Ga-DOTA-GA11–GA13 were diluted to approximately 20 pmol/mL in PBS (pH 7.4) and an equal volume of n-octanol was added. The mixture was vortexed vigorously for 10 cycles of 1 min at room temperature before being centrifuged for 6 min to separate the two phases. Equal volumes from each phase were aliquoted into individual counting tubes and analysed for 1 min using the Perkin Elmer 2480 Wizard2™ gamma counter (PerkinElmer, Massachusetts, USA). The distribution coefficient was calculated using the following equation LogD = […]. […]

[9] = system: A431-CCK2R tumors; assay: in vivo; conditions: female, NSG, mouse, iv, 1 h
Procedure: as §1, §2, §3, §4, §5, §6, §7, §8, §9

[10] = 3 mg/kg, Uptake in A431-CCK2R Tumors, 1 hr Blocked
[11] = Uptake in A431-CCK2R Tumors, 1 hr

Structure (SMILES)	metabolites in kidney homogenates [5]	metabolites in liver homogenates [5]	tissue to tissue ratio at 1 h [6]	SUV at 2 h [6]	tissue uptake at 1 h [7, 10]	tissue uptake at 1 h [7, 11]	tissue uptake at 2.5 h ([7]; Uptake in A431-CCK2R Tumors)	tissue uptake at 1 h ([7]; Uptake in Organs: Blood)	tissue uptake at 1 h ([7]; Uptake in Organs: Heart)	tissue uptake at 1 h ([7]; Uptake in Organs: Kidneys)	tissue uptake at 1 h ([7]; Uptake in Organs: Liver)	tissue uptake at 1 h ([7]; Uptake in Organs: Lungs)	tissue uptake at 1 h ([7]; Uptake in Organs: Muscle)	tissue uptake at 1 h ([7]; Uptake in Organs: Spleen)	tissue uptake at 1 h ([7]; Uptake in Organs: Stomach)	logD [8]	further results
CSCC[C@H](NC(=O)[C@H](Cc1c[nH]c2ccccc12)NC(=O)CNC(=O)[C@H](Cc1ccc(O)cc1)NC(=O)[C@H](C)NC(=O)[C@@H](CCC(=O)O)NC(=O)[C@@H](CCC(=O)O)NC(=O)[C@@H](CCC(=O)O)NC(=O)[C@@H](CCC(=O)O)NC(=O)[C@@H](CCC(=O)O)NC(=O)[C@H](N)CCC(=O)O)C(=O)N[C@@H](CC(=O)O)C(=O)N[C@@H](Cc1ccccc1)C(N)=O [CP04, reference compound]	–	–	–	–	–	–	–	–	–	–	–	–	–	–	–	–	IC50 [1]: 0.76 nM; Tumor uptake ([2]; AR42J xenografts, [68Ga]Ga labeled, 1 hour post-injection): 5.5 ± 0.8 [34] % ID/g; IC50 [3]: 2.33 nM; fold decrease in affinity for CCK2R without gallium coordinated DOTA at the N-terminus ([3]; linear peptide vs its Ga-DOTA form): greater than 3 fold; Tumor uptake [4]: 2.5 ± 0.3 [62] % ID/g
CCCC[C@@H](C(=O)N[C@@H](CC(=O)O)C(=O)N(C)[C@@H](Cc1cccc2ccccc12)C(N)=O)N(C)C(=O)[C@H](Cc1c[nH]c2ccccc12)NC(=O)CN(C)C(=O)[C@H](Cc1ccc(O)cc1)NC(=O)[C@H](C)NC(=O)[C@@H](CCC(=O)O)NC(=O)[C@@H](CCC(=O)O)NC(=O)[C@@H](CCC(=O)O)NC(=O)[C@@H](CCC(=O)O)NC(=O)[C@@H](CCC(=O)O)NC(=O)[C@@H](CCC(=O)O)NC(=O)CN1CCN(CC(=O)O)CCN(CC(=O)O)CCN(CC(=O)O)CC1 [[^68Ga]Ga-DOTA-GA4, metal not drawn] ({DOTA}-[dE][dE][dE][dE][dE][dE]AY[Sar]W[NMeNle]D[NMe1Nal]-NH2)	no observable metabolites detected	no observable metabolites detected	11.4 ± 0.9	0.38 SUV	2.05 ± 0.14 %ID/g	8.77 ± 1.21 %ID/g	7.54 ± 0.5 %ID/g	0.92 ± 0.05 %ID/g	0.45 ± 0.03 %ID/g	20.3 ± 0.89 %ID/g	0.51 ± 0.01 %ID/g	0.92 ± 0.04 %ID/g	0.14 ± 0.01 %ID/g	0.62 ± 0.14 %ID/g	2.37 ± 0.12 %ID/g	-2.97 ± 0.13	Tumor uptake ([2]; mouse, in vivo, 1 h): 31.1 ± 5.3 % ID/g
CCCC[C@@H](C(=O)N[C@@H](CC(=O)O)C(=O)N(C)[C@@H](Cc1cccc2ccccc12)C(N)=O)N(C)C(=O)[C@H](Cc1c[nH]c2ccccc12)NC(=O)CN(C)C(=O)[C@H](Cc1ccc(O)cc1)NC(=O)[C@H](C)NC(=O)[C@@H](CCC(=O)O)NC(=O)[C@@H](CCC(=O)O)NC(=O)[C@@H](CCC(=O)O)NC(=O)[C@@H](C)NC(=O)[C@@H](CCC(=O)O)NC(=O)[C@@H](CCC(=O)O)NC(=O)CN1CCN(CC(=O)O)CCN(CC(=O)O)CCN(CC(=O)O)CC1 [[^68Ga]Ga-DOTA-GA13, metal not drawn] ({DOTA}-[dE][dE][dA][dE][dE][dE]AY[Sar]W[NMeNle]D[NMe1Nal]-NH2)	no observable metabolites detected	no observable metabolites detected	19.3 ± 1.49	0.32 SUV	2.53 ± 0.17 %ID/g	9.68 ± 1.02 %ID/g	11.4 ± 0.17 %ID/g	0.83 ± 0.07 %ID/g	0.4 ± 0.03 %ID/g	12.3 ± 0.63 %ID/g	0.44 ± 0.03 %ID/g	0.85 ± 0.11 %ID/g	0.16 ± 0.03 %ID/g	0.43 ± 0.13 %ID/g	1.81 ± 0.12 %ID/g	-2.59 ± 0.02	SUVmax [9]: 1.86
